The target of this assay is T1, p56lck GST-SH2 (lck SH2 domain) (Homo sapiens, UniProt P06239).
T1 construct: GST (N)
The experiment in a line: Receptor-ligand equilibrium binding constants by surface plasmon resonance (biosensor), lck SH2 domain. The conditions noted are these: Table 1, compounds of formula (II). The protocol:
The general methods for the determination of Receptor-Ligand Kinetic and Equilibrium Binding Constants using Surface Plasmon Resonance as applied to the lck SH2 Domain have been described in: M. M. Morelock, R. H. Ingraham, R. Betageri.
General Biosensor Methods.
The mobile phase buffer, 10 mM HEPES, pH 7.4, 150 mM NaCl, and 0.05% P-20, was maintained at a flow rate of 5 μL/min in all experiments. All buffers and protein solutions were filtered through a 0.2 um filter and degassed immediately before use.
Strepavidin was diluted to 0.25 mg/ml in 20 mM NaOAc buffer, pH 4.5 and immobilized by free amine coupling to approximately 3000 RU for all 4 flow cells from a single sensor chip .
Surface Kd Determinations.
The surface was regenerated by 4μL of 20 mM HCl followed by 4 μL of 150 mM Tris base. The values used in the analysis were the equilibrium plateau values from which the sample refractive index has been subtracted. For the data analyzed for linear function the equilibrium plateau values without the sample refractive index subtracted were used. Free solution Kd determinations. In a 96 well microtiter plate 20 nM SH2 domain suspended in running buffer containing 0.2 mg/ml BSA and 1 mM DT'T was distributed in 100 μL per well. The highest concentration of compound tested was added to the last well and titrated with 2 fold dilutions for a final of 10 concentrations to be run. 25 μL of the mixture was injected over a strepavidin-biotin-ε-aminohexanoic acid-EGQpYEEIPIA surface and regenerated with 4 μL of 20 mM HCl. […], of 150 mM Tris base was injected after every 11 samples. Typically 8 assays were run in an overnight programmed run.
For orientation: SPR reads the build-up and loss of mass on a sensor chip optically.

Bounds are passed on as bounds.

As usually defined, the Kd is the concentration at which binding is half-saturated. A lower Kd goes with a tighter complex.

T1 sequence (P06239 127-224 limits assumed): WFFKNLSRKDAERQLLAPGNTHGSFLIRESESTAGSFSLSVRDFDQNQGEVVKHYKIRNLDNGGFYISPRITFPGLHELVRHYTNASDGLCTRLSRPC

As to `Cc1ccn(C/C=C/c2ccccc2)c(=O)c1NC(=O)C(Cc1ccc(C(C)(C)C(=O)O)cc1)NC(=O)Cc1ccc2ccccc2c1` (racemic) [Compound 115], the Kd is 1.2 µM.

`Cc1ccn(C/C=C/c2ccccc2)c(=O)c1NC(=O)C(Cc1ccc(C(C)(C)C(=O)O)cc1)NC(=O)C(C)(C)c1ccc2ccccc2c1` (racemic) [Compound 116]: the Kd was found to be 3.2 µM.

Take `Cc1ccn(CCCCC(C)C)c(=O)c1NC(=O)C(Cc1ccc(C(C)(C)C(=O)O)cc1)NC(=O)OCc1ccccc1` (racemic) [Compound 146, 3-[2'-(R,S)-Benyloxycarbonylamino-3'-[4"-(1'"-carboxy-1'"-methyl)ethyl]benzene]propanoylamino-1-(5-methylhexyl)-4-methyl-2-pyridone]: the affinity, expressed as Kd, was 13 µM.

`COc1ccc(Cn2ccc(C)c(NC(=O)C(Cc3ccc(C(C)(C)C(=O)O)cc3)N(C)C(=O)Cc3ccc4ccccc4c3)c2=O)cc1` (racemic) [Compound 152, 3-[2'-(R,S)-(N-Methyl-N-(2""-naphthylacetyl)amino-3'-[4"-(1'"-carboxy-1'"-methyl)ethyl]benzene]propanoylamino-1-(4-methoxybenzyl)-4-methyl-2-pyridone] gave a dissociation constant Kd of 4.5 µM.

`COc1ccc(Cn2cc(/C=C/C(N)=O)c(C)c(NC(=O)C(Cc3ccc(C(C)(C)C(=O)O)cc3)NC(=O)Cc3ccc4ccccc4c3)c2=O)cc1` (racemic) [Compound 221, 3-[2'-(R,S)-(2""-Naphthylacetyl)amino-3'-[4"-(1'"-carboxy-1'"-methyl)ethyl]benzene]propanoylamino-5-acrylamido-1-(4-methoxybenzyl)-4-methyl-2-pyridone]: the Kd was 0.17 µM.

The molecule `COc1ccc(Cn2cc(I)c(C)c(NC(=O)C(Cc3ccc(C(C)(C)C(=O)O)cc3)NC(=O)Cc3ccc4ccccc4c3)c2=O)cc1` (racemic) [Compound 229, 3-[2'-(R,S)-(2""-Naphthylacetyl)amino-3'4"-(1'"-carboxy-1'"-methyl)ethyl]benzene]propanoylamino-5-iodo-1-(4-methoxybenzyl)-4-methyl-2-pyridone] registered a Kd of 0.14 µM.

`COc1ccc(Cn2ccc(C)c(NC(=O)[C@H](Cc3ccc(N(O)C(=O)C(=O)O)cc3)NC(=O)Cc3cccc4ccccc34)c2=O)cc1` [Compound 1, 3-[2'-(S)-(1'"-Naphthylacetyl)amino-3'-[4"-(N-oxalyl, N-hydroxy)amino]benzene]propanoylamino-1-(4-methoxybenzyl)-4-methyl-2-pyridone] gave a Kd of 2.3 µM.

Regarding `COc1ccc(Cn2ccc(C)c(NC(=O)[C@H](Cc3ccc(C(C)C(=O)O)cc3)NC(=O)Cc3cccc4ccccc34)c2=O)cc1` (some centres unmarked) [Compound 3], the Kd was determined as 5.1 µM.

The molecule `COc1ccc(Cn2ccc(C)c(NC(=O)[C@H](Cc3ccc(NC(=O)C(=O)O)cc3)NC(=O)OC(C)(C)C)c2=O)cc1` [Compound 4] gave a Kd of 42.5 µM.

As for `COc1ccc(Cn2ccc(C)c(NC(=O)[C@H](Cc3ccc(NC(=O)C(=O)O)cc3)NC(=O)Cc3c[nH]c4ccccc34)c2=O)cc1` [Compound 5], the equilibrium dissociation constant (Kd) is 1.3 µM.

The molecule `COc1ccc(Cn2ccc(C)c(NC(=O)[C@H](Cc3ccc(NC(=O)C(=O)O)cc3)NC(C)=O)c2=O)cc1` [Compound 6] displayed a Kd of 8.3 µM.

`COc1ccc(Cn2ccc(C)c(NC(=O)[C@H](Cc3ccc(NC(=O)C(=O)O)cc3)NC(=O)Nc3nc4ccccc4s3)c2=O)cc1` [Compound 7] had a Kd of more than 11 µM.

As for `COc1ccc(Cn2ccc(C)c(NC(=O)[C@H](Cc3ccc(C(O)C(=O)O)cc3)NC(=O)Cc3cccc4ccccc34)c2=O)cc1` (stereo partly drawn) [Compound 8, 3-[2'-(S)-(1""-Naphthylacetyl)amino-3'-[4"-(1'"-hydroxy-1'"-carboxy)methyl]benzene]propanoylamino-1-(4-methoxybenzyl)-4-methyl-2-pyridone], the Kd was found to be 0.99 µM.

Molecule `COc1ccc(Cn2ccc(C)c(NC(=O)[C@H](Cc3ccc(NC(=O)C(=O)O)cc3)NC(=O)Nc3cccc4ccccc34)c2=O)cc1` [Compound 9] came in with a Kd of 64.5 µM.

Molecule `COc1ccc(Cn2ccc(C)c(NC(=O)[C@H](Cc3ccc(NC(=O)C(=O)O)cc3)NC(=O)Cc3csc(N)n3)c2=O)cc1` [Compound 10] returned a Kd of 6.7 µM.

`COc1ccc(Cn2ccc(C)c(NC(=O)[C@H](Cc3ccc(NC(=O)C(=O)O)cc3)NC(=O)Cc3sc(N)nc3-c3ccccc3)c2=O)cc1` [Compound 11] displayed a Kd of 2.9 µM.

Turning to `Cc1ccn(CC=CCC2CCCCC2)c(=O)c1NC(=O)[C@H](Cc1ccc(CC(=O)O)cc1)NC(=O)Cc1cccc2ccccc12` [Compound 12], the Kd was more than 250 µM.

Regarding `COc1ccc(Cn2ccc(C)c(NC(=O)[C@H](Cc3ccc(NC(=O)C(=O)O)cc3)NC(=O)Cc3csc(NC=O)n3)c2=O)cc1` [Compound 13], the Kd was found to be 4.6 µM.

Turning to `COc1ccc(Cn2ccc(C)c(NC(=O)[C@H](Cc3ccc(NC(=O)C(=O)O)cc3)NC(=O)c3csc(NS(=O)(=O)c4ccc(Cl)cc4)n3)c2=O)cc1` [Compound 14], binding was put at a Kd of 4.2 µM.

Consider `COc1ccc(Cn2ccc(C)c(NC(=O)[C@H](Cc3ccc(NC(=O)C(=O)O)cc3)NC(=O)Cc3nc(-c4ccccc4)sc3C)c2=O)cc1` [Compound 15], for which the affinity, expressed as Kd, was 1.8 µM.

On to `COc1ccc(Cn2ccc(C)c(NC(=O)[C@H](Cc3ccc(NC(=O)C(=O)O)cc3)NC(=O)Cc3csc(-c4cnccn4)n3)c2=O)cc1` [Compound 17], for which the Kd worked out at 3.4 µM.

For `Cc1ccn(Cc2ccccc2)c(=O)c1NC(=O)[C@H](Cc1ccc(CC(=O)O)cc1)NC(=O)Cc1cccc2ccccc12` [Compound 18], the affinity, expressed as Kd, was 17.7 µM.

On to `COc1ccccc1Cn1ccc(C)c(NC(=O)[C@H](Cc2ccc(CC(=O)O)cc2)NC(=O)Cc2cccc3ccccc23)c1=O` [Compound 19], for which the Kd stood at 37.2 µM.

On to `COc1cccc(Cn2ccc(C)c(NC(=O)[C@H](Cc3ccc(CC(=O)O)cc3)NC(=O)Cc3cccc4ccccc34)c2=O)c1` [Compound 20], for which the dissociation constant (Kd) stood at 19.4 µM.

As for `Cc1ccn(CCc2ccccc2)c(=O)c1NC(=O)[C@H](Cc1ccc(CC(=O)O)cc1)NC(=O)Cc1cccc2ccccc12` [Compound 21], the Kd was found to be 30.5 µM.

Molecule `COc1ccc(Cn2ccc(C)c(NC(=O)[C@H](Cc3ccc(NC(=O)C(=O)O)cc3)NC(=O)Cc3ccc(N(C)C)cc3)c2=O)cc1` [Compound 22] gave a Kd of 1.8 µM.

The molecule `Cc1ccn(Cc2ccccn2)c(=O)c1NC(=O)[C@H](Cc1ccc(CC(=O)O)cc1)NC(=O)Cc1cccc2ccccc12` [Compound 23] returned a Kd of 55.7 µM.

In turn, `COc1ccc(Cn2ccc(C)c(NC(=O)[C@H](Cc3ccc(N(O)C(=O)C(=O)O)cc3)NC(=O)Cc3c[nH]c4ccccc34)c2=O)cc1` [Compound 24] had a Kd of 2.9 µM.

As to `COc1ccc(Cn2ccc(C)c(NC(=O)[C@H](Cc3ccc(NC(=O)C(=O)O)cc3)NC(=O)N(C)c3cccc4ccccc34)c2=O)cc1` [Compound 25], binding was put at a Kd of 2.1 µM.

Turning to `COc1ccc(Cn2ccc(C)c(NC(=O)[C@H](Cc3ccc(N(O)C(=O)C(=O)O)cc3)NC(=O)Cc3ccc(N(C)C)cc3)c2=O)cc1` [Compound 26], the Kd was determined as 4.3 µM.

Take `COc1ccc(Cn2ccc(C)c(NC(=O)[C@H](Cc3ccc(NC(=O)C(=O)O)cc3)NC(=O)Cc3c[nH]c4ccc(O)cc34)c2=O)cc1` [Compound 27]: binding was put at a Kd of 2.5 µM.

Consider `COc1ccc(Cn2ccc(C)c(NC(=O)[C@H](Cc3ccc(NC(=O)C(=O)O)cc3)NC(=O)Cc3c(C)[nH]c4ccccc34)c2=O)cc1` [Compound 28], for which the Kd was 1.1 µM.

In the case of `COc1ccc(Cn2ccc(C)c(NC(=O)[C@H](Cc3ccc(NC(=O)C(=O)O)cc3)NC(=O)CN3CCc4ccccc4C3)c2=O)cc1` [Compound 29], binding was characterised by a dissociation constant (Kd) of 1.2 µM.

As for `COc1ccc(Cn2ccc(C)c(NC(=O)[C@H](Cc3ccc(NC(=O)C(=O)O)cc3)NC(=O)Nc3c(C)ccc4ccccc34)c2=O)cc1` [Compound 30], the Kd came out at 0.35 µM.

`COc1ccc(Cn2ccc(C)c(NC(=O)[C@H](Cc3ccc(NC(=O)C(=O)O)cc3)NC(=O)CNC(=O)c3ccccc3C(=O)O)c2=O)cc1` [Compound 31] displayed a Kd of 0.68 µM.

With `COc1ccc(Cn2ccc(C)c(NC(=O)[C@H](Cc3ccc(NC(=O)C(=O)O)cc3)NC(=O)Cc3ccc4ccccc4c3)c2=O)cc1` [Compound 32], the affinity, expressed as Kd, was 0.35 µM.

In turn, `COc1ccc(Cn2ccc(C)c(NC(=O)[C@H](Cc3ccc(NC(=O)C(=O)O)cc3)NC(=O)Cc3ccc([N+](=O)[O-])cc3)c2=O)cc1` [Compound 33] had an equilibrium dissociation constant (Kd) of 3.7 µM.

Regarding `COc1ccc(Cn2ccc(C)c(NC(=O)[C@H](Cc3ccc(NC(=O)C(=O)O)cc3)NC(=O)Cc3ccccc3[N+](=O)[O-])c2=O)cc1` [Compound 34], the Kd was found to be 2.4 µM.

Take `COc1ccc(Cn2ccc(C)c(NC(=O)[C@H](Cc3ccc(NC(=O)C(=O)O)cc3)NC(=O)Cc3ccccc3N(C)C)c2=O)cc1` [Compound 35]: binding was put at a Kd of 4 µM.

Molecule `COc1ccc(Cn2ccc(C)c(NC(=O)[C@H](Cc3ccc(NC(=O)C(=O)O)cc3)NC(=O)Cc3ccc(Br)cc3)c2=O)cc1` [Compound 36] registered a Kd of 1.5 µM.

The molecule `COc1ccc(Cn2ccc(C)c(NC(=O)[C@H](Cc3ccc(NC(=O)C(=O)O)cc3)NC(=O)Cc3cccc(Br)c3)c2=O)cc1` [Compound 37] came in with a Kd of 0.65 µM.
